In patent US20240254138A1, “TRICYCLIC PYRIMIDINES AS CYCLIN-DEPENDENT KINASE 7 (CDK7) INHIBITORS” (JANSSEN PHARMACEUTICA NV, priority 2021, published 2024):
Read-outs that look alike come from different tables or passages of the source.

Legend:
[1] = system: RNA Polymerase II Serine 5 phosphorylation in A549 cells overexpressing CDK7-mutant (C312S); assay: Imaging-based cellular RNA PolII Ser5 phosphorylation assay in A549 cells overexpressing CDK7-mutant (C312S); type: cell-based, human; conditions: Homo sapiens, A549, A549 cells overexpressing CDK7-mutant (C312S); RNA PolII Ser5 phosphorylation; averaged over all measurements; read-out: CDK7_A549 mutant hCDK7(pIC50) (converted)
Summary of the method: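 A549 cells overexpressing CDK7 C312S (with endogenous wild-type CDK7) were treated with compound for 3 h at 37 °C in 1% FBS medium. Phospho-Rpb1 CTD Ser5 was immunostained after fixation and imaged. IC50 came from curve fit of % control, normalised to DMSO and 10 μM reference-compound controls.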

[2] = system: RNA Polymerase II Serine 5 phosphorylation (Rpb1 CTD, downstream substrate of CDK7) in A549 cells; assay: Imaging-based cellular RNA PolII Ser5 phosphorylation assay in A549 cells; type: cell-based, human; conditions: Homo sapiens, A549, A549 cells, wild-type CDK7; RNA PolII Ser5 phosphorylation; averaged over all measurements; read-out: CDK7_A549 Wild-type CDK7 (pIC50) (converted)
Summary of the method: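 A549 cells, seeded 1000/well in DMEM with 1% FBS and cultured 20 h, were treated with compound for 3 h at 37 °C. Ser5-phospho-Rpb1 CTD detected by immunofluorescence imaging after fixation and methanol permeabilization; IC50 from curve fit normalized to DMSO and 10 μM reference-compound controls.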

[3] = target: CDK7/cyclinH/MAT1 trimeric complex (Homo sapiens, UniProt P50613); assay: In vitro CDK7 assay, potency of irreversible covalent inhibitors (kinact/KI), coupled PK/LDH ADP readout at 340 nm; conditions: for Ki: CDK7 (20 nM enz.) (KI, μM), 20 nM enzyme; for kinact: read-out: CDK7 (20 nM enz.) (kinact, s^−1), 20 nM enzyme
[4] = read-out: CDK7 (20 nM enz.) (kinact/KI, M^−1*s^−1), 20 nM enzyme
[5] = read-out: CDK7 (20 nM enz.) (kobs/[I], M^−1*s^−1), 20 nM enzyme

CDK7/cyclinH/MAT1 trimeric complex, sequence (P50613 whole entry): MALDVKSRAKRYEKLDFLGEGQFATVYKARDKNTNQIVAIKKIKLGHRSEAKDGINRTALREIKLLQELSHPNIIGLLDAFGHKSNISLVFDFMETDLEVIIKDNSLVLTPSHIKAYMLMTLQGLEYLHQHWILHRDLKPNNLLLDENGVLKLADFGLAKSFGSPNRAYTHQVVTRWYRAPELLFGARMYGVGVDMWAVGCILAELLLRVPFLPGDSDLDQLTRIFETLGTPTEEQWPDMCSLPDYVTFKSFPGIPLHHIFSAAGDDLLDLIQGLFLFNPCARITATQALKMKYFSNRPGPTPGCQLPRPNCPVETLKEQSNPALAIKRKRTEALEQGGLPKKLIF
CDK7/cyclinH/MAT1 trimeric complex, sequence (P51946 whole entry partner): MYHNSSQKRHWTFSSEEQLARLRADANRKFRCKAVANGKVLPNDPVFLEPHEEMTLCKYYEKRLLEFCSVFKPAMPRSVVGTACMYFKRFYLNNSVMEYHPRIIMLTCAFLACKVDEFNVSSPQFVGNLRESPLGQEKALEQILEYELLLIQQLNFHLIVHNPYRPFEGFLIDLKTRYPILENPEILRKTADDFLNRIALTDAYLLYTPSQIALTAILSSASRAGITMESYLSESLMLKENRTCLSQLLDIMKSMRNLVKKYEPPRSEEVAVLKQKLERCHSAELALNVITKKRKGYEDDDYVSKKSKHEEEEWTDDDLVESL
CDK7/cyclinH/MAT1 trimeric complex, sequence (P51948 whole entry partner): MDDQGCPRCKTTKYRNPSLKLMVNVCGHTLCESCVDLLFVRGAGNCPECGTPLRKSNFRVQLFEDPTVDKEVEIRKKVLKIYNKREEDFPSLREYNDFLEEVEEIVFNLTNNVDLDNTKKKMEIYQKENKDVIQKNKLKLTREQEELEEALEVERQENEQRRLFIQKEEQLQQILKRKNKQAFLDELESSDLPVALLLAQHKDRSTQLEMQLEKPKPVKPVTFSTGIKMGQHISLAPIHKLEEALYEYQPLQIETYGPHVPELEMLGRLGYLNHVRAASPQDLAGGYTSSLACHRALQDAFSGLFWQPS

Row | Structure (SMILES) | IC50 [1] [nM] | IC50 [2] [nM] | Ki [3] [µM] | kinact [3] [s⁻¹] | kinact/KI [3, 4] [M⁻¹ s⁻¹] | kinact/KI [3, 5] [M⁻¹ s⁻¹]
1 | CC#CC(=O)N1CC(n2cc(-c3cc4c(c(C)n3)OC(C)c3c(N5CCOCC5)ccnc3N4)cn2)C1 (centres unmarked) [Compound 380] | > 10000 | 162 | 0.241 | 4.27e-05 | 177 | –
2 | C=CC(=O)N1CCC(N2CC(c3cc4c(c(C#N)n3)OCc3c(N5CCOCC5)ccnc3N4)C2)CC1 [Compound 384] | 5130 | 355 | 0.03 | 7.49e-06 | 249 | –
3 | C=CC(=O)N1CCN(C2CCN(c3cc4c(c(C)n3)OCc3c(N5CCOCC5)ccnc3N4)CC2)CC1 [Compound 391] | > 10000 | ~61.7 | 0.0205 | 2.25e-05 | 1100 | –
4 | CC#CC(=O)N1CCC(N2CCN(c3cc4c(c(C)n3)OCc3c(N5CCOCC5)ccnc3N4)CC2)CC1 [Compound 393] | > 10000 | 105 | 0.0477 | 2.18e-05 | 457 | –
5 | CC#CC(=O)N1CCN(C2CN(c3cc4c(c(C)n3)OCc3c(N5CCOCC5)ccnc3N4)C2)CC1 [Compound 394] | > 10000 | 339 | 0.313 | 1.25e-05 | 39.9 | –
6 | CC#CC(=O)N1CCN(C2CCN(c3cc4c(c(C)n3)OCc3c(N5CCOCC5)ccnc3N4)CC2)CC1 [Compound 396] | > 10000 | 93.3 | 0.0643 | 5.18e-05 | 807 | –
7 | CC#CC(=O)N1CCC(n2cc(-c3cc4c(c(C)n3)OCc3c(N5CCOCC5)ccnc3N4)cn2)CC1 [Compound 399] | > 10000 | 447 | 0.0839 | 6.61e-06 | 78.8 | –
8 | CC#CC(=O)N1CC(n2cc(-c3cc(C#N)c4c(c3)Nc3nccc(N5CCOCC5)c3C(C)O4)cn2)C1 (centres unmarked) [Compound 417] | 2950 | 58.9 | 0.0223 | 1.51e-05 | 678 | –
9 | COC(=O)/C=C/C(=O)N1CC(N2CCC(c3cc4c(c(C)n3)OCc3c(-c5cnn(C)c5)ccnc3N4)CC2)C1 [Compound 431] | > 10000 | 55 | – | – | – | 1170

Results, then the compound that gave them:

Row | IC50 [1] [nM] | IC50 [2] [nM] | Ki [3] [µM] | kinact [3] [s⁻¹] | kinact/KI [3, 4] [M⁻¹ s⁻¹] | kinact/KI [3, 5] [M⁻¹ s⁻¹] | Structure (SMILES)
10 | 7080 | 224 | 0.0333 | 1.58e-05 | 475 | – | C=CC(=O)N1CCC(n2cc(-c3cc(C)c4c(c3)Nc3nccc(N5CCOCC5)c3CO4)cn2)CC1 [Compound 379]
11 | > 10000 | 204 | 3.26 | 4.7e-05 | 14.4 | – | C=CC(=O)N1CCC(N2CCN(c3ccc4c(c3)Nc3nccc(N5CCOCC5)c3CO4)CC2)CC1 [Compound 382]
12 | 4270 | 158 | 0.0211 | 1.2e-05 | 570 | – | CC#CC(=O)N1CCC(N2CC(c3cc4c(c(C#N)n3)OCc3c(N5CCOCC5)ccnc3N4)C2)CC1 [Compound 385]
13 | > 10000 | 141 | 0.0199 | 2.13e-05 | 1070 | – | C=CC(=O)N1CCC(N2CCN(c3cc4c(c(C)n3)OCc3c(N5CCOCC5)ccnc3N4)CC2)CC1 [Compound 389]
14 | > 10000 | 105 | 0.0914 | 5.02e-05 | 549 | – | CC#CC(=O)N1CC(N2CCC(c3cc4c(c(C5CC5)n3)OCc3c(C5CCOCC5)ccnc3N4)CC2)C1 [Compound 400]
15 | > 10000 | 174 | 0.203 | 6.11e-05 | 300 | – | CC#CC(=O)N1CC(N2CCC(c3cc4c(c(C)n3)OCc3c(C5CCOCC5)ccnc3N4)CC2)C1 [Compound 410]
16 | > 10000 | 251 | 0.0611 | 4.36e-05 | 714 | – | CC#CC(=O)N1CCC(n2ccc(-c3cc4c(c(C)n3)OCc3c(N5CCOCC5)ccnc3N4)cc2=O)CC1 [Compound 414]
17 | > 10000 | 69.2 | – | – | – | 856 | CCOC(=O)/C=C/C(=O)N1CC(N2CCC(c3cc4c(c(C)n3)OCc3c(-c5cnn(C)c5)ccnc3N4)CC2)C1 [Compound 435]
18 | > 10000 | 575 | 0.311 | 4.3e-05 | 138 | – | Cc1nc(C2CCN(C3CN(C(=O)/C=C/C(=O)OC(C)C)C3)CC2)cc2c1OCc1c(-c3cnn(C)c3)ccnc1N2 [Compound 436]
